Measurements taken from paper PMC4008422, “Cytotoxicity and activation of the Wnt/beta-catenin pathway in mouse embryonic stem cells treated with four GSK3 inhibitors” (BMC Research Notes, 2014).
Like-named read-outs stand apart in the source and are kept apart here.

What was measured:
ES-CCE cells = assay: Cell viability assay (MTT), ES-CCE; format: cell-based, mouse; settings: BIO 0.1-1 μM, others 1-10 μM, three days
Method: (§1) The medium was changed daily and the cells were passaged 2–3 times per week. […] A randomized control was performed with basal medium without growth factors and/or small molecules. Physiological activation of the Wnt/beta-catenin-pathway was tested in medium supplemented with 50 ng/ml Wnt3a.
(§2) The viability of the mouse ES cells was determined after exposure to different concentrations of GSK3 inhibitors for three days using the MTT assay. The decrease of MTT activity is a reliable metabolism-based test for quantifying cell viability; this decrease correlates with the loss of cell viability. 2,000 cells were seeded overnight on gelatine-coated 96-well plates in LIF-containing ES cell medium. […] Basal medium without GSK3 inhibitors or DMSO was used as control. All tested conditions were analyzed in triplicates.

Wnt/beta-catenin pathway [1] = assay: Wnt/beta-catenin TOPFlash dual luciferase reporter assay, ES-CCE; format: cell-based, mouse; settings: 48 and 72 h, vs random controls and 50 ng/ml Wnt3a
Method: (§3) The Wnt/beta-catenin reporter assay was performed with the M50 Super 8× TOPFlash and M51 Super 8× FOPFlash vector containing the firefly luciferase gene under the control of TCF/LEF binding sites (M50 Super 8x TOPFlash) or mutated bindings sites (M51 Super 8× FOPFlash). 12,500 cells were seeded overnight on gelatine-coated 96-well plates in LIF-containing ES cell medium. On the next day the cells were transfected using Lipofectamine (Life Technologies) with one of the aforementioned vectors plus pGL4.75 [hRluc/CMV] (Promega) encoding the renilla luciferase reporter gene hRluc as a transfection control. […] The Dual-Luciferase® reporter assay system (Promega) was employed 48 and 72 h after medium change to follow the luminescence reaction using a GloMax®-multi detection system (Promega).
(§4) To assess the activation of the Wnt/beta-catenin signaling pathway by GSK3i, a dual luciferase reporter assay was used (Figure 2A/B). Mouse ES cells were transfected with the M50 TOPflash firefly luciferase vector, comprising seven TCF/LEF binding sites or as a negative control with the M51 FOPflash vector harboring mutated binding sites. To normalize the transfection efficiency, a hRluc/CMV vector with a constitutive expression of the renilla luciferase was used. Mouse ES cells of both lines were incubated with GSK3 inhibitors with concentrations close to the IC50 values calculated for the ES-D3 cell line. Dual luciferase luminescence was measured 48 and 72 h after cultivation with one of the inhibitors.

Wnt/beta-catenin pathway [2] = assay: Wnt/beta-catenin TOPFlash dual luciferase reporter assay, ES-D3; format: cell-based, mouse; settings: 48 and 72 h, vs control and 50 ng/ml Wnt3a
Method: as §3, §4

ES-D3 cells = assay: Cell viability assay (MTT), ES-D3; format: cell-based, mouse; settings: for viability reduced by: three days; for IC50: ES-D3 cells, three day treatment, medium devoid of LIF, reduced serum, read-out: IC50 (half maximal inhibitory concentration, cell viability)
Method: as §1, §2

GSK3 = settings: cell-free system; cited from earlier work
Brachyury = assay: Immunofluorescence staining of Brachyury in ES-D3 cells; format: cell-based, mouse; settings: for saturation of the concentration-response curve, Brachyury-positive cells: 0-10 μM CHIR-99021 or 0-2.5 μM CHIR-98014; for EC50: read-out: EC50 (Brachyury-positive cells)
Method: Immunofluorescence was performed according to standard procedures. ES cells were treated on 6-well plates with different GSK3 inhibitors and after 48 h 100,000 cells were re-seeded in each cavity of Matrigel-coated glass slides (Zellkontakt, Nörten-Hardenberg, Germany). After 24 h in medium the cells were fixed in 4% (w/v) paraformaldehyde for 45 min at 4°C. Subsequently, the cells were blocked for 20 min in PBS plus 0.2% Triton X-100, 6% BSA, and 1 mg/ml NaBH4. Primary and secondary antibodies were diluted in PBS with 0.1% Triton X-100 and 0.1% BSA. Primary antibodies were incubated on the slides for 2.5 h at room temperature (RT) or overnight at 4°C. Secondary antibodies were incubated on the slides for 1 h at RT. […] Secondary antibodies were obtained from Dianova (Hamburg, Germany). Finally, the slides were mounted with immunoselect antifading mounting medium containing DAPI (Dianova) to counterstain the nuclei. The stained cells were examined using an Olympus IX81 inverted microscope (Olympus, Hamburg, Germany).

T gene = assay: qPCR gene expression of T in ES-D3 cells; format: cell-based, mouse; settings: six day treatment, vs undifferentiated or randomly differentiated cells
Method: Total RNA was isolated from the cells using the RNeasy Kit (Qiagen, Hilden, Germany). Briefly, the cells were lysed in Qiazol (Qiagen), the hydrophilic phase was loaded onto RNA spin columns, and RNA was then prepared as instructed. cDNA synthesis was performed with random hexamer primers and 2 μg of the isolated total RNA following the manufacturer’s instructions. 10–20 ng of cDNA was then loaded in each well of a 384-well plate and specific primers were mixed with the GoTaq® PCR master mix according to the manufacturers’ instructions. Primer sequences were (5’-3’): T fw: […], rev: […], Nanog fw: […], rev: […], and Pou5f1 fw: […], rev: […]. Each qPCR amplification was performed in triplicates and the gathered data were normalized with qBasePlus (Biogazelle, Zwijnaarde, Belgium) against the housekeeping genes G6pdx, Tbp, and Tuba1a[10].

Oct3/4 = assay: Immunofluorescence staining of Oct3/4 in ES-D3 cells; format: cell-based, mouse; settings: three day treatment
Method: Immunofluorescence was performed according to standard procedures. ES cells were treated on 6-well plates with different GSK3 inhibitors and after 48 h 100,000 cells were re-seeded in each cavity of Matrigel-coated glass slides (Zellkontakt, Nörten-Hardenberg, Germany). After 24 h in medium the cells were fixed in 4% (w/v) paraformaldehyde for 45 min at 4°C. Subsequently, the cells were blocked for 20 min in PBS plus 0.2% Triton X-100, 6% BSA, and 1 mg/ml NaBH4. Primary and secondary antibodies were diluted in PBS with 0.1% Triton X-100 and 0.1% BSA. Primary antibodies were incubated on the slides for 2.5 h at room temperature (RT) or overnight at 4°C. Secondary antibodies were incubated on the slides for 1 h at RT. The following primary antibodies were used: anti-Oct3/4 (sc-5279, Santa Cruz Biotechnology, Heidelberg, Germany) and anti-Brachyury (AF2085, R&D Systems, Minneapolis, MN, USA). Secondary antibodies were obtained from Dianova (Hamburg, Germany). Finally, the slides were mounted with immunoselect antifading mounting medium containing DAPI (Dianova) to counterstain the nuclei. The stained cells were examined using an Olympus IX81 inverted microscope (Olympus, Hamburg, Germany).

[3] = ES-D3, 5 μM, three day treatment

Molecule | toxicity (in words) (ES-CCE cells) | activation of the Wnt/beta-catenin pathway (luminescence signal) (Wnt/beta-catenin pathway [1]; 5 μM) | activation of the Wnt/beta-catenin pathway (luminescence signal) (Wnt/beta-catenin pathway [2]; ES-D3, 5 μM) | viability reduced by (ES-D3 cells; ES-D3, 2.5 μM) | viability reduced by (ES-D3 cells; ES-D3, 5 μM) | viability reduced by (ES-D3 cells; ES-D3, 7.5 μM) | viability reduced by (ES-D3 cells; ES-D3, 10 μM) | IC50 (ES-D3 cells; Mus musculus, 72 h) | saturation of the concentration-response curve, Brachyury-positive cells (Brachyury; ES-D3, three day treatment) | T gene expression induction (T gene; ES-D3, 5 μM) | viability reduced by (ES-D3 cells; ES-D3, 1 μM) | IC50 (ES-D3 cells) | further results
Cc1c[nH]c(-c2cnc(NCCNc3ccc(C#N)cn3)nc2-c2ccc(Cl)cc2Cl)n1 [CHIR-99021] | smallest reduction of the viability | only a significant increase at 72 h | significant activation of the Wnt/beta-catenin pathway | 24.7% | 56.3% | 61.9% | 69.2% | 4900 nM | 60% | up to 2,500 fold |  |  | selectivity as GSK3 inhibitor (GSK3): most selective GSK3 inhibitor; Brachyury-positive cells (Brachyury; [3]): around 43%; EC50 (Brachyury; Mus musculus, 72 h): 3190 nM
Cn1cc(C2=C(c3ccc(Cl)cc3Cl)C(=O)NC2=O)c2ccccc21 [SB-216763] | smallest reduction of the viability | comparable to that of negative or positive controls | significantly increased compared to control cells but not to Wnt3a-incubated cells | 29.8% | 55.6% | 56.1% | 57.2% | 5700 nM |  | up to 300 fold | 1.7% |  | cells positive for Oct3/4 (Oct3/4; ES-D3, 5 μM): all cells were positive for Oct3/4; cells double-positive for Brachyury and Oct3/4 (Brachyury; [3]): ~ 3%
O=C1Nc2cc(Br)ccc2/C1=C1/Nc2ccccc2/C1=N\O [BIO] | strongly cytotoxic |  |  |  |  |  |  |  |  |  | 83.5% | 480 nM | activation of the Wnt/beta-catenin pathway (luminescence signal) (Wnt/beta-catenin pathway [1]; 0.5 μM): comparable to that of negative or positive controls; activation of the Wnt/beta-catenin pathway (luminescence signal) (Wnt/beta-catenin pathway [2]; ES-D3, 0.5 μM): did not result in a robust activation of the Wnt/beta-catenin pathway above controls; cells positive for Oct3/4 (Oct3/4; ES-D3, 0.5 μM): almost all cells were positive for Oct3/4; viability reduced by (ES-D3 cells; ES-D3, 0.25 μM): 25.7%; viability reduced by (ES-D3 cells; ES-D3, 0.5 μM): 58.7%; viability reduced by (ES-D3 cells; ES-D3, 0.75 μM): 68.7%; Brachyury-positive cells (Brachyury; ES-D3, 0.5 μM, three day treatment): almost no Brachyury-positive cells; T gene expression induction (T gene; ES-D3, 0.5 μM): up to 300 fold
CHIR-98014 |  |  |  |  |  |  |  |  | 50% |  | 52% | 1100 nM | activation of the Wnt/beta-catenin pathway (luminescence signal) (Wnt/beta-catenin pathway [1]; 1 μM): significant increase of Wnt-signaling after 48 and 72 h; activation of the Wnt/beta-catenin pathway (luminescence signal) (Wnt/beta-catenin pathway [2]; ES-D3, 1 μM): significant activation of the Wnt/beta-catenin pathway; Brachyury-positive cells (Brachyury; ES-D3, 1 μM, three day treatment): ~50%; EC50 (Brachyury; ES-D3, three day treatment, counting of stained cells): 320 nM; T gene expression induction (T gene; ES-D3, 1 μM): up to 2,500 fold
